From US9926297B2, “Bicyclic AZA compounds as muscarinic M1 receptor and/or M4 receptor agonists” (Heptares Therapeutics Limited, priority 2014, dated 2018)

Experiments:
[1] = target: T1, human muscarinic M1 receptor (Homo sapiens, UniProt P11229); test: Alphascreen Surefire phospho-ERK1/2 functional assay, M1; assay type: cell-based; conditions: for EC50: read-out: pEC50 M1 (converted); for Emax: CHO, read-out: % Emax cf. ACh, M1, CHO cells stably expressing human M1
T1 sequence (P11229 1-460): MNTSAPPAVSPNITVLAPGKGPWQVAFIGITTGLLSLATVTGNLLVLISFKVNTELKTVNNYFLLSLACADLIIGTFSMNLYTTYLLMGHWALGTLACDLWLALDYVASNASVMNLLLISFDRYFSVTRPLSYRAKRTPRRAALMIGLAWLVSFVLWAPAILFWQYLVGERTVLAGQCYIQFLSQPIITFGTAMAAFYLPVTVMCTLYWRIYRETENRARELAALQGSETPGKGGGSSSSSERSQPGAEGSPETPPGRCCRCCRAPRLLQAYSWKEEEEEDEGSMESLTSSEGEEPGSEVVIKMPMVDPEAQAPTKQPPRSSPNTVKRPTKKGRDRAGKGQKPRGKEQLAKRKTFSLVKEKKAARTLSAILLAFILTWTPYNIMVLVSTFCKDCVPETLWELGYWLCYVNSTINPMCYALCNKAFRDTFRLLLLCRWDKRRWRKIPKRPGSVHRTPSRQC

[2] = target: T2, human muscarinic M4 receptor (Homo sapiens, UniProt P08173); test: Alphascreen Surefire phospho-ERK1/2 functional assay, M4; assay type: cell-based; conditions: for EC50: read-out: pEC50 M4 (converted); for Emax: CHO, read-out: % Emax cf. ACh, M4, CHO cells stably expressing human M4
T2 construct: expressed in transfected cells
T2 sequence (P08173 1-479): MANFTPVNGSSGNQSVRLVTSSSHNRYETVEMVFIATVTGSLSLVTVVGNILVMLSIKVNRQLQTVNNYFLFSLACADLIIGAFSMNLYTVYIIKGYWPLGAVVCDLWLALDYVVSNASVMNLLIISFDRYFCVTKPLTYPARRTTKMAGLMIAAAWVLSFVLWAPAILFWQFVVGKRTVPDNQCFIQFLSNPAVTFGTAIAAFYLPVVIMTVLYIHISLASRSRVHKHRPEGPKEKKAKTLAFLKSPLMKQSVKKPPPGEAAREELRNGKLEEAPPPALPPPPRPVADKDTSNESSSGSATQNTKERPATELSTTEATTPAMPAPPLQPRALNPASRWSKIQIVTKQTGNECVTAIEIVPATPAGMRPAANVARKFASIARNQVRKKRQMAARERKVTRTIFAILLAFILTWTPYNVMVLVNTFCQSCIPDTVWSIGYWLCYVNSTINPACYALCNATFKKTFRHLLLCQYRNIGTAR

[3] = target: T3, human muscarinic M2 receptor (Homo sapiens, UniProt P08172); test: Alphascreen Surefire phospho-ERK1/2 functional assay, M2; conditions: for Emax: CHO, read-out: % Emax cf. ACh, M2, CHO cells stably expressing human M2
T3 sequence (P08172 1-466): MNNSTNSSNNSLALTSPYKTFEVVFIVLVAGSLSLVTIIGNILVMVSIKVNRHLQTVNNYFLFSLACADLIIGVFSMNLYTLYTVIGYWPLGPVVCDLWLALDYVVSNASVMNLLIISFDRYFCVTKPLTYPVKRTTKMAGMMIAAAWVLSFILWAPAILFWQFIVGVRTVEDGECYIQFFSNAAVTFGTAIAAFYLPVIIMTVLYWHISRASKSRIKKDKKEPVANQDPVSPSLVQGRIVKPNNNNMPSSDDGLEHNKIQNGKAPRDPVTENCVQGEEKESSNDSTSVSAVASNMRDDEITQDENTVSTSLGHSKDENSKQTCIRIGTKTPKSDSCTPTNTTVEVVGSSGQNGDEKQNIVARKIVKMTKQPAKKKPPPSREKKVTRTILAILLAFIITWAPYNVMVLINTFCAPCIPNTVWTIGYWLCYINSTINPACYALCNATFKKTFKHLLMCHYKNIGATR

[4] = target: human muscarinic M3 receptor (Homo sapiens, UniProt P20309); test: Alphascreen Surefire phospho-ERK1/2 functional assay, M3; conditions: for Emax: CHO, read-out: % Emax cf. ACh, M3, CHO cells stably expressing human M3; for EC50: pEC50 M3, CHO cells stably expressing human M3
[5] = CHO cells stably expressing human M1, phospho-ERK1/2, * = variable results
[6] = CHO cells stably expressing human M4, phospho-ERK1/2, * = variable results
[7] = phospho-ERK1/2, * = variable results

Sequence of human muscarinic M3 receptor (P20309 whole entry): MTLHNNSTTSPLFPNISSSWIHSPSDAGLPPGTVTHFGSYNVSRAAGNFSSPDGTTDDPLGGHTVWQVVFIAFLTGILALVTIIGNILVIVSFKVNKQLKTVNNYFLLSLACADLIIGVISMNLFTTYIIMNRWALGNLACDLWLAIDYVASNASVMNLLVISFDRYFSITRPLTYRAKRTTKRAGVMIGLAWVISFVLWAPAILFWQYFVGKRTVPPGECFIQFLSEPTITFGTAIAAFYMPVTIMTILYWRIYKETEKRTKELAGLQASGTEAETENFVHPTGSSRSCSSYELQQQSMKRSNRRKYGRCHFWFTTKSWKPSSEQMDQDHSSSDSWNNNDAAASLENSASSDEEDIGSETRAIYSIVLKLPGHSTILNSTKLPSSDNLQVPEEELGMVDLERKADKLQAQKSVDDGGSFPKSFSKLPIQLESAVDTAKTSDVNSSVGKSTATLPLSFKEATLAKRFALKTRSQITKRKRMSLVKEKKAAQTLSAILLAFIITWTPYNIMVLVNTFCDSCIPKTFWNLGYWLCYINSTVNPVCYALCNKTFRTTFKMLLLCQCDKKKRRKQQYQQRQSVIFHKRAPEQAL

EC50 [1, 5] | Emax ([1]; relative to ACh) | EC50 [2, 6] | Emax ([2]; relative to ACh) | EC50 [3] | Emax ([3]; relative to ACh) | Emax ([4]; relative to ACh) | EC50 [4, 7] | Compound | pEC50 M1 [1, 5] | % Emax cf. ACh, M1 ([1]; CHO cells stably expressing human M1, relative to ACh) | pEC50 M4 [2, 6] | % Emax cf. ACh, M4 ([2]; CHO cells stably expressing human M4, relative to ACh) | pEC50 M2 ([3]; CHO cells stably expressing human M2, phospho-ERK1/2, * = variable results) | % Emax cf. ACh, M2 ([3]; CHO cells stably expressing human M2, relative to ACh) | pEC50 M3 ([4]; CHO cells stably expressing human M3, phospho-ERK1/2, * = variable results) | % Emax cf. ACh, M3 ([4]; CHO cells stably expressing human M3, relative to ACh)
0.631 µM | 36% | 0.0158 µM | 86% | > 20 µM | 3% | 4% | > 20 µM | CCOC(=O)N1CCC2(CC(N3CCC([C@@H]4CCCN4C(=O)C4CC4)CC3)C2)C1 (single isomer, unassigned) [2-8 Isomer 2] | – | – | – | – | – | – | – | –
0.631 µM | 37% | 0.02 µM | 121% | > 20 µM | 5% | 9% | > 20 µM | CCOC(=O)N1CCC2(CC(N3CCC(C4CCCN4C(=O)NOC)CC3)C2)C1 (single isomer, unassigned) [2-24 Isomer 2, ethyl 2-{4-[1-(methoxycarbamoyl)pyrrolidin-2-yl]piperidin-1-yl}-6-azaspiro[3.4]octane-6-carboxylate] | – | – | – | – | – | – | – | –
– | 39% | 0.0251 µM | 100% | > 20 µM | 7% | 7% | > 20 µM | CCOC(=O)N1CCC2(CC(N3CCC(C4CCCN4C(=O)OC)CC3)C2)C1 (single isomer, unassigned) [2-11 Isomer 2, ethyl 2-{4-[1-(methoxycarbonyl)pyrrolidin-2-yl]piperidin-1-yl}-6-azaspiro[3.4]octane-6-carboxylate] | – | – | – | – | – | – | – | –
0.794 µM | 39% | 0.0631 µM | 79% | > 20 µM | 53% | 16% | > 20 µM | CCOC(=O)N1CCC2(CC(N3CCC(C4CCCN4C=O)CC3)C2)C1 (single isomer, unassigned) [2-2 Isomer 2, ethyl 2-[4-(1-formylpyrrolidin-2-yl)piperidin-1-yl]-6-azaspiro[3.4]octane-6-carboxylate] | – | – | – | – | – | – | – | –
0.126 µM | 98% | 0.02 µM | 107% | > 20 µM | 16% | 18% | > 20 µM | CCOC(=O)N1CCC2(CC(N3CCC([C@@H]4CCCN4c4ccncc4)CC3)C2)C1 (single isomer, unassigned) [2-80 Isomer 2] | – | – | – | – | – | – | – | –
1 µM | 58% | 0.0501 µM | 96% | > 20 µM | 5% | 4% | > 20 µM | CCOC(=O)N1CCC2(CC(N3CCC(N4CCCCCC4C(=O)OC)CC3)C2)C1 (single isomer, unassigned) [5-2 Isomer 2, ethyl 2-{4-[2-(methoxycarbonyl)azepan-1-yl]piperidin-1-yl}-6-azaspiro[3.4]octane-6-carboxylate] | – | – | – | – | – | – | – | –
0.251 µM | 41% | 0.00631 µM | 114% | > 20 µM | 53% | 7% | > 20 µM | CCOC(=O)N1CCC2(CC(N3CCC(C4CCCN4C(=O)NC)CC3)C2)C1 (single isomer, unassigned) [2-16 Isomer 2, ethyl 2-{4-[1-(methylcarbamoyl)pyrrolidin-2-yl]piperidin-1-yl}-6-azaspiro[3.4]octane-6-carboxylate] | – | – | – | – | – | – | – | –
> 20 µM | 24% | 0.0316 µM | 106% | > 20 µM | 1% | 6% | > 20 µM | CCOC(=O)N1CCC2(CC(N3CCC(C4CCCN4C(=O)N(C)C)CC3)C2)C1 (single isomer, unassigned) [2-20 Isomer 2, ethyl 2-{4-[1-(dimethylcarbamoyl)pyrrolidin-2-yl]piperidin-1-yl}-6-azaspiro[3.4]octane-6-carboxylate] | – | – | – | – | – | – | – | –

Continued, molecule first:

Compound | EC50 [1, 5] | Emax ([1]; relative to ACh) | EC50 [2, 6] | Emax ([2]; relative to ACh) | EC50 [3] | Emax ([3]; relative to ACh) | Emax ([4]; relative to ACh) | EC50 [4, 7] | pEC50 M1 [1, 5] | % Emax cf. ACh, M1 ([1]; CHO cells stably expressing human M1, relative to ACh) | pEC50 M4 [2, 6] | % Emax cf. ACh, M4 ([2]; CHO cells stably expressing human M4, relative to ACh) | pEC50 M2 ([3]; CHO cells stably expressing human M2, phospho-ERK1/2, * = variable results) | % Emax cf. ACh, M2 ([3]; CHO cells stably expressing human M2, relative to ACh) | pEC50 M3 ([4]; CHO cells stably expressing human M3, phospho-ERK1/2, * = variable results) | % Emax cf. ACh, M3 ([4]; CHO cells stably expressing human M3, relative to ACh)
CCOC(=O)N1CCC2(CC(N3CCC(N4CCNC4=O)CC3)C2)C1 (single isomer, unassigned) [2-124 Isomer 2, ethyl 2-[4-(2-oxoimidazolidin-1-yl)piperidin-1-yl]-6-azaspiro[3.4]octane-6-carboxylate] | 0.631 µM | 45% | 0.0794 µM | 77% | > 20 µM | 2% | 0% | > 20 µM | – | – | – | – | – | – | – | –
CCOC(=O)N1CCC2(CC(N3CCC(N4CCCOC4=O)CC3)C2)C1 (single isomer, unassigned) [4-7 Isomer 2, ethyl 2-[4-(2-oxo-1,3-oxazinan-3-yl)piperidin-1-yl]-6-azaspiro[3.4]octane-6-carboxylate] | 3.98 µM | 73% | 0.251 µM | 67% | > 20 µM | 1% | 10% | > 20 µM | – | – | – | – | – | – | – | –
CCOC(=O)N1CCC2(CC(N3CCC(c4ncns4)CC3)C2)C1 (single isomer, unassigned) [1-30 Isomer 2, ethyl 2-[4-(1,2,4-thiadiazol-5-yl)piperidin-1-yl]-6-azaspiro[3.4]octane-6-carboxylate] | 0.316 µM | 37% | 0.0126 µM | 101% | > 20 µM | 9% | 5% | > 20 µM | – | – | – | – | – | – | – | –
CCOC(=O)N1CCC2(CC(N3CCC(c4nccn4C(=O)OCC)CC3)C2)C1 (single isomer, unassigned) [1-8 Isomer 2, ethyl 2-{4-[1-(ethoxycarbonyl)-1H-imidazol-2-yl]piperidin-1-yl}-6-azaspiro[3.4]octane-6-carboxylate] | 0.316 µM | 76% | 0.0158 µM | 98% | > 20 µM | 34% | 0% | > 20 µM | – | – | – | – | – | – | – | –
CCOC(=O)N1CCC2(CC(N3CCC(c4nccc(N)n4)CC3)C2)C1 (single isomer, unassigned) [3-9 Isomer 2, ethyl 2-[4-(4-aminopyrimidin-2-yl)piperidin-1-yl]-6-azaspiro[3.4]octane-6-carboxylate] | 0.251 µM | 103% | 0.0251 µM | 96% | > 20 µM | 2% | 4% | > 20 µM | – | – | – | – | – | – | – | –
CCOC(=O)N1CCC2(CC(N3CCC(C#N)(c4ccccn4)CC3)C2)C1 (single isomer, unassigned; isomer 2) [3-10 Isomer 2] | – | – | – | – | – | – | – | – | 8.0 | 90% | 8.9 | 103% | 7.0 | 96% | < 4.7 | 0%
CCOC(=O)N1CCC2(CC(N3CCC(c4ncc(Cl)n4C)CC3)C2)C1 (single isomer, unassigned) [1-14 Isomer 2, ethyl 2-[4-(5-chloro-1-methyl-1H-imidazol-2-yl)piperidin-1-yl]-6-azaspiro[3.4]octane-6-carboxylate] | 0.631 µM | 66% | 0.0501 µM | 99% | > 20 µM | 27% | 5% | > 20 µM | – | – | – | – | – | – | – | –
